#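 Exposure lasted 48 hours, with cells grown in 96-well plates and compounds tested at five concentrations. At the GI50, growth is halved. TGI: concentration producing complete growth inhibition.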
# How the values were obtained:
# Assay in all cases: growth of human tumour cells (NCI), 48 h
# [1] = tested on: KM12 colon
# [2] = tested on: UO-31 renal
# [3] = tested on: SNB-19 CNS
# [4] = tested on: OVCAR-8 ovarian
# [5] = tested on: OVCAR-3 ovarian
# [6] = tested on: IGROV1 ovarian
# [7] = tested on: A498 renal
# [8] = tested on: SF-539 CNS
# [9] = tested on: MCF7 breast
# [10] = tested on: MDA-MB-231 breast
Compound,TGI [1] [µM],TGI [2] [µM],TGI [3] [µM],TGI [4] [µM],TGI [5] [µM],TGI [6] [µM],TGI [7] [µM],TGI [8] [µM],GI50 [1] [µM],GI50 [2] [µM],GI50 [9] [µM],TGI [9] [µM],GI50 [3] [µM],GI50 [4] [µM],GI50 [10] [µM],TGI [10] [µM],GI50 [6] [µM],GI50 [7] [µM],GI50 [8] [µM],GI50 [5] [µM]
CN1c2ccccc2N(C(=O)c2ccc([N+](=O)[O-])cc2)C(CC(=O)O)c2cccn21 (configuration not stated),> 100,> 100,> 100,> 100,> 100,> 100,> 100,> 100,–,–,–,–,–,–,–,–,–,–,–,–
Cc1cc(NCCCCCCCCNc2cc(C)nc3cc(N)ccc23)c2ccc(N)cc2n1,37.8,> 100,45.4,52.1,37.4,–,> 100,41.2,–,–,–,–,–,–,–,–,–,–,–,–
O=C(/C=C/c1cc(Cl)cc(Cl)c1O)c1cccc(O)c1,> 100,> 100,> 100,> 100,> 100,> 100,> 100,73.3,–,–,–,–,–,–,–,–,–,–,–,–
CCCCCN(CCCCC)C(=O)[C@@H](CCC(=O)O)NC(=O)c1cc2ccccc2[nH]1,> 100,79.9,> 100,> 100,> 100,> 100,> 100,49.4,–,–,–,–,–,–,–,–,–,–,–,–
Cc1cn(C2CC(O)C(COC(=O)c3ccccc3)O2)c(=O)[nH]c1=O (configuration not stated),> 100,–,> 100,> 100,> 100,> 100,> 100,> 100,–,–,–,–,–,–,–,–,–,–,–,–
Cc1c(Cl)cccc1NC(=O)C(=O)C(C(=O)c1ccccc1-c1ccccc1)C1OC(=O)c2ccccc21 (configuration not stated),39.4,49.4,–,> 100,33.8,> 100,–,28.1,–,–,–,–,–,–,–,–,–,–,–,–
Nc1ncnc2c1ncn2[C@]1(CO)C=C(CO)C(O)C1O (some centres not stated),> 100,–,> 100,–,–,–,> 100,–,–,–,–,–,–,–,–,–,–,–,–,–
COC(=O)C1CCc2c1c(=O)n1c([nH]c3ccccc31)c2C#N (configuration not stated),> 100,> 100,> 100,> 100,> 100,> 100,> 100,> 100,–,–,–,–,–,–,–,–,–,–,–,–
CN(CCN1C(=O)c2cc([N+](=O)[O-])cc3cc([N+](=O)[O-])cc(c23)C1=O)CCN1C(=O)c2cc([N+](=O)[O-])cc3cc([N+](=O)[O-])cc(c23)C1=O,> 35,> 20.8,> 100,29.6,> 28,5.51,> 100,> 58.8,–,–,–,–,–,–,–,–,–,–,–,–
O=C(CC(Cl)=C(Cl)Cl)Nc1ccccc1,> 100,> 100,> 100,> 100,–,> 100,> 100,> 100,> 100,> 100,> 100,> 100,> 100,> 100,> 100,> 100,> 100,> 100,> 100,–
O=C(N/C(=C\c1ccc(Cl)cc1)c1nc2ccccc2[nH]1)c1ccccc1,33.6,42.2,88,52.8,49,60,52.4,31.1,–,–,–,–,–,–,–,–,–,–,–,–
COC(=O)CCC(NC(=S)N/N=C(\C)c1cnc2ccccc2n1)C(=O)OC (configuration not stated),80.4,> 100,> 100,> 100,> 100,> 100,> 100,> 100,–,–,–,–,–,–,–,–,–,–,–,–
COc1ccc(C2=C(Cl)c3cc(OC)c(OC)cc3C2OC)cc1OC (configuration not stated),> 100,> 100,> 100,> 100,–,> 100,> 100,> 100,–,–,–,–,–,–,–,–,–,–,–,–
Cn1c2c(c3ccccc31)CCN(CCCCN1CCCCC1)C2=O,–,> 100,> 100,> 100,> 100,> 100,> 100,> 100,–,–,–,–,–,–,–,–,–,–,–,–
CC(=O)OCC1OC(n2cc(F)c(=O)[nH]c2=O)C(NC(=O)N(CCCl)N=O)C(OC(C)=O)C1OC(C)=O (configuration not stated),> 100,> 100,> 100,> 100,> 100,> 100,> 100,> 100,–,–,–,–,–,–,–,–,–,–,–,–
COc1ccc(NC(=O)C(=O)c2c(O)c3ccc(O)cc3oc2=O)c([N+](=O)[O-])c1,> 100,> 100,> 100,–,> 100,> 100,> 100,> 100,–,–,–,–,–,–,–,–,–,–,–,–
CCC(C)CCOC(=O)c1ccc(N=Cc2ccc(C=Nc3ccc(C(=O)OCCC(C)CC)cc3)cc2)cc1 (configuration not stated),–,> 100,> 100,> 100,> 100,> 100,> 100,> 100,–,–,–,–,–,–,–,–,–,–,–,–
CN1C(=O)CCC1(O)C1C=CC=CC1 (configuration not stated),> 100,> 100,> 100,> 100,> 100,> 100,–,> 100,–,–,–,–,–,–,–,–,–,–,–,–

Compound,TGI [1] [µM],TGI [2] [µM],TGI [3] [µM],TGI [4] [µM],TGI [5] [µM],TGI [6] [µM],TGI [7] [µM],TGI [8] [µM],GI50 [1] [µM],GI50 [2] [µM],GI50 [9] [µM],TGI [9] [µM],GI50 [3] [µM],GI50 [4] [µM],GI50 [10] [µM],TGI [10] [µM],GI50 [6] [µM],GI50 [7] [µM],GI50 [8] [µM],GI50 [5] [µM]
N#Cc1c(-c2ccc(Cl)c(Cl)c2)c(-c2ccc(Cl)c(Cl)c2)nn(CC(=O)O)c1=O,> 100,> 100,–,> 100,77.4,> 100,–,–,–,–,–,–,–,–,–,–,–,–,–,–
O=C1NC(Cc2ccc(O)cc2)C(=O)N2CCCC12 (configuration not stated),> 100,> 100,> 100,> 100,> 100,> 100,> 100,> 100,–,–,–,–,–,–,–,–,–,–,–,–
CC1=Nc2ccccc2S/C1=C(/C)NNS(=O)(=O)c1ccc(C)cc1,> 100,> 100,> 100,> 100,> 100,> 100,> 100,> 100,–,–,–,–,–,–,–,–,–,–,–,–
Cc1ccc(S(=O)(=O)OCCn2cnc3nc(NC(=O)c4ccccc4)[nH]c(=O)c32)cc1,> 100,> 100,> 100,> 100,> 100,> 100,> 100,> 100,–,–,–,–,–,–,–,–,–,–,–,–
CN(C)C=Nc1ccn(CCO)c(=O)n1,> 100,> 100,> 100,> 100,> 100,> 100,> 100,> 100,–,–,–,–,–,–,–,–,–,–,–,–
N#Cc1cccc2c1Nc1ccccc1S2,> 100,> 100,> 100,> 100,> 100,> 100,> 100,> 100,–,–,–,–,–,–,–,–,–,–,–,–
C[C@@H](NC1CCCC[C@H]1O)c1ccccc1 (some centres not stated),> 100,> 100,> 100,> 100,> 100,> 100,> 100,> 100,–,–,–,–,–,–,–,–,–,–,–,–
COc1ccc(C/C(=N/O)C(=O)NCCc2cc(Br)c(OCCCN(C)C)c(Br)c2)cc1Br,34.9,42.3,32.6,49.1,40.4,–,–,29.6,–,–,–,–,–,–,–,–,–,–,–,–
COP(=O)(OC)C(=O)N1N(c2ccc([N+](=O)[O-])cc2)C(=O)C(C)NC1(NNc1ccc([N+](=O)[O-])cc1)P(=O)(OC)OC (configuration not stated),> 100,> 100,> 100,> 100,> 100,> 100,> 100,> 100,–,–,–,–,–,–,–,–,–,–,–,–
N.N.N.N.N.[Co+3].[I-].[N-]=[N+]=[N-],> 100,> 100,> 100,> 100,> 100,> 100,> 100,> 100,> 100,> 100,–,–,> 100,> 100,–,–,> 100,> 100,> 100,> 100
CCN1C/C(=C\c2cc(OC)c(OC)cc2OC)C(=O)/C(=C/c2cc(OC)c(OC)cc2OC)C1,3.04,3.9,23.7,> 100,5.17,11.2,7.81,7.33,1.57,1.8,–,–,4.23,3.43,3.66,12,3.06,2.56,2.61,2.29
O=C1C2Nc3ccccc3SC2C(=O)N1c1ccc(Br)cc1 (configuration not stated),> 100,68.2,> 100,> 100,99.5,> 100,82.5,> 100,–,–,–,–,–,–,–,–,–,–,–,–
CC(C)OP(=O)(OC(C)C)/C(Cl)=N/Nc1ccc([N+](=O)[O-])cc1,> 100,> 100,> 100,> 100,> 100,–,> 100,> 100,–,–,–,–,–,–,–,–,–,–,–,–
O=C(NCCCCCCCCCCCCNC(=O)c1cccc2ccccc12)c1cccc2ccccc12,> 100,> 61,> 73.6,> 100,> 67.6,> 100,> 74.4,4.73,–,–,–,–,–,–,–,–,–,–,–,–
c1ccc2sc(SCCSc3nc4ccccc4s3)nc2c1,> 100,> 100,> 100,> 100,> 100,> 100,> 100,–,–,–,–,> 100,–,–,–,> 100,–,–,–,–
C/C(=C1/N=C(c2cc([N+](=O)[O-])ccc2Cl)N(c2cccc(C)c2)C1=O)c1cc2ccccc2oc1=O,> 100,> 100,> 100,> 100,> 100,> 100,> 100,–,–,–,–,–,–,–,–,–,–,–,–,–
COC(=O)CC(NC(=O)OCc1ccccc1)C(C(C)=O)C(=O)OCc1ccccc1 (configuration not stated),> 31.6,> 31.6,–,> 31.6,> 31.6,> 31.6,> 31.6,> 31.6,–,–,–,–,–,–,–,–,–,–,–,–

# Source: PubChem BioAssay (NCI)
